Laboratory results as given in article PMC7765388, “Synthesis and In Vitro Antiprotozoan Evaluation of 4-/8-Aminoquinoline-based Lactams and Tetrazoles” (Molecules, 2020).
pIC50: −log10 of the molar value. Like-named read-outs stand apart in the source and are kept apart here.

Key:
P. falciparum K1 strain = assay: In vitro antiplasmodium activity, 3H-hypoxanthine incorporation assay; type: cell-based, Plasmodium falciparum; conditions: for Selectivity Indices (SI) [(IC50 L6 Cell Line)/(IC50 K1 strain)]: L6 vs K1; for pIC50: read-out: P. falciparum K1 IC50
Procedure: (§1) Antiplasmodial activity on the K1 strain, antitrypanosomal activity on T. b. brucei rhodesiense STIB900 and cytotoxicity on the L6 mammalian cell-line were all carried out at the Swiss Tropical and Public Health Institute (STPH), Switzerland as follows:
In vitro activity against erythrocytic stages of P. falciparum was determined using a ^3H-hypoxanthine incorporation assay, using the chloroquine and pyrimethamine-resistant K1 strain that originates from Thailand and the standard drug chloroquine (Sigma C6628). Compounds were dissolved in DMSO at 10 mg/mL and added to parasite cultures incubated in RPMI 1640 medium without hypoxanthine, supplemented with HEPES (5.94 g/L), NaHCO3 (2.1 g/L), neomycin (100 U/mL), Albumax^R (5 g/L) and washed human red cells A^+ at 2.5% hematocrit (0.3% parasitemia). Serial drug dilutions of eleven three-fold dilution steps covering a range from 100 to 0.002 μg/mL were prepared. The 96-well plates were incubated in a humidified atmosphere at 37 °C; 4% CO2, 3% O2, 93% N2. After 48 h, 50 μL of ^3H-hypoxanthine (= 0.5 μCi) was added to each well of the plate. The test compounds were tested in triplicate ad parasite growth compared to control or blank well. The plates were incubated for a further 24 h under the same conditions. The plates were then harvested with a Betaplate™ cell harvester (Wallac, Zurich, Switzerland), and the red blood cells transferred onto a glass fiber filter then washed with distilled water. The dried filters were inserted into a plastic foil with 10 mL of scintillation fluid and counted in a Betaplate™ liquid scintillation counter (Wallac, Zurich, Switzerland). IC50 values were calculated from sigmoidal inhibition curves by linear regression using Microsoft Excel.

[1] = In vitro cytotoxicity with L-6 cells, alamarBlue assay; type: cell-based; conditions: rat, L6 cells, 70 h + 2 h alamarBlue, read-out: Cytotoxicity L6 Cell Lines IC50
Procedure: as §1
Assays were performed in triplicate in 96-well microtiter plates, each well containing 100 μL of RPMI 1640 medium supplemented with 1% L-glutamine (200 mM) and 10% fetal bovine serum, and 4000 L-6 cells (a primary cell line derived from rat skeletal myoblasts). Serial drug dilutions of eleven three-fold dilution steps covering a range from 100 to 0.002 μg/mL were prepared. After 70 h of incubation, the plates were inspected under an inverted microscope to assure the growth of the controls and sterile conditions. 10 μL of alamarBlue was then added to each well, and the plates incubated for another 2 h. Then the plates were read with a Spectramax Gemini XS microplate fluorometer (Molecular Devices Cooperation, Sunnyvale, CA, USA) using an excitation wavelength of 536 nm and an emission wavelength of 588 nm. The IC50 values were calculated by linear regression from the sigmoidal dose inhibition curves using Softmax Pro software (Molecular Devices Cooperation, Sunnyvale, CA, USA).

[2] = test system: Trypanosoma brucei rhodesiense STIB900; assay: In vitro antitrypanosomal activity, alamarBlue assay; type: cell-based; conditions: STIB900 bloodstream forms, 70 h + 2-4 h alamarBlue, read-out: T. b. brucie T. b. rhod IC50
Procedure: as §1
This stock was isolated in 1982 from a human patient in Tanzania and, after several mouse passages, was cloned and adapted to axenic culture conditions. Minimum essential medium (50 µL) supplemented with 25 mM HEPES, 1 g/L additional glucose, 1% MEM non-essential amino acids (100×), 0.2 mM 2-mercaptoethanol, 1 mM Na-pyruvate and 15% heat-inactivated horse serum was added to each well of a 96-well microtiter plate. Serial drug dilutions of eleven three-fold dilution steps covering a range from 100 to 0.002 μg/mL were prepared. Then, 4 × 10^3 bloodstream forms of T. b. rhodesiense STIB 900 in 50 µL was added to each well and the plate incubated at 37 °C under a 5% CO2 atmosphere for 70 h. 10 µL alamarBlue (resazurin, 12.5 mg in 100 mL double-distilled water) was then added to each well and incubation continued for a further 2–4 h. Then the plates were read with a Spectramax Gemini XS microplate fluorometer (Molecular Devices Cooperation, Sunnyvale, CA, USA) using an excitation wavelength of 536 nm and an emission wavelength of 588 nm. The test compounds were tested in triplicate, and their IC50 values were calculated by linear regression from the sigmoidal dose inhibition curves using Softmax Pro software (Molecular Devices Cooperation, Sunnyvale, CA, USA).

[3] = Aqueous kinetic solubility; type: physicochemical
Procedure: A 10 mM stock of the compound was diluted in DMSO to give standard solutions at 220 µM, 100 µM and 10 µM in a 96 well plate as described previously. The 10 mM stock was then spiked 1:50 in phosphate-buffered saline pH 7.0 to give a final DMSO concentration of 2%. Both the standard and sample solutions were plated in triplicate. After shaking for 2 h at 25 °C, the solutions were filtered and analyzed on an Agilent 1200 series HPLC with DAD detection. The solubility of the test compounds was determined by comparing the peak area of the sample solutions to that of the standard solutions.

[4] = Plasmodium falciparum, multidrug-resistant (chloroquine and pyrimethamine-resistant) K1 strain, erythrocytic stages, 72 h
[5] = L-6 cells (rat skeletal myoblasts)
[6] = aqueous buffer, kinetic from dmso stock, phosphate-buffered saline pH 7.0, 2% DMSO, 2 h at 25 °C
[7] = multidrug-resistant (chloroquine and pyrimethamine-resistant) K1 strain, erythrocytic stages, 72 h
[8] = Plasmodium falciparum, K1, 72 h

Compound | Selectivity Indices (SI) [(IC50 L6 Cell Line)/(IC50 K1 strain)] (P. falciparum K1 strain) | pIC50 (P. falciparum K1 strain; [4]) | IC50 at 72 h [1, 5] [µM] | pIC50 ([2]; Trypanosoma brucei) | pIC50 (P. falciparum K1 strain; [7]) | pIC50 [2] | also measured
COC1C(=O)N(CCNc2ccnc3cc(Cl)ccc23)C1c1ccc(Cl)c(Cl)c1 (stereo not shown) [Compound 4d, 1-[2-(7-Chloroquinolin-4-ylamino)ethyl]-4-(3,4-dichlorophenyl)-3-methoxyazetidin-2-one] | 43 | 6.70 | 8.54 | 4.72 | – | – | –
COC1C(=O)N(CCNc2ccnc3cc(Cl)ccc23)C1c1ccccc1 (stereo not shown) [Compound 4a, 1-[2-(7-Chloroquinolin-4-ylamino)ethyl]-3-methoxy-4-phenylazetidin-2-one] | 211 | 6.33 | 98.5 | 4.27 | – | – | solubility kinetic at 2 h [3, 6]: > 200 µM
N-{5-[(1-tert-butyl-1H-tetrazol-5-yl)(4-chlorophenyl)methylamino]pentan-2-yl}-6-methoxyquinolin-8-amine [Compound 6e] | – | – | – | – | 5.74 | 4.67 | solubility kinetic at 2 h ([3]; pH 7): <15 µM
N-{5-[(1-tert-butyl-1H-tetrazol-5-yl)(phenyl)methylamino]pentan-2-yl}-6-methoxyquinolin-8-amine [Compound 6a] | – | – | – | – | 5.61 | 4.74 | –
CCN(CC)CCCC(C)Nc1ccnc2cc(Cl)ccc12 (stereo not shown) [Chloroquine, reference compound] | – | – | – | – | – | – | pIC50 (P. falciparum K1 strain; [8]): 6.66
COc1cccc(C(NCCCC(C)Nc2cc(OC)cc3cccnc23)c2nnnn2C(C)(C)C)c1 (stereo not shown) [Compound 6b] | 38 | 5.70 | 75.5 | 4.85 | – | – | –
COc1cc([C@@H]2c3cc4c(cc3[C@H](O)[C@H]3COC(=O)[C@H]23)OCO4)cc(OC)c1OC [Podophyllotoxin, reference compound] | – | – | – | – | – | – | IC50 at 72 h [1]: 0.0193 µM
COC1C(=O)N(CCCCNc2ccnc3cc(Cl)ccc23)C1c1ccccc1 (stereo not shown) [Compound 4g, 1-[4-(7-Chloroquinolin-4-ylamino)butyl]-3-methoxy-4-phenylazetidin-2-one] | 9 | 6.51 | 2.87 | 4.70 | – | – | solubility kinetic at 2 h [3, 6]: > 200 µM
N-{5-[(1-tert-butyl-1H-tetrazol-5-yl)(p-tolyl)methylamino]pentan-2-yl}-6-methoxyquinolin-8-amine [Compound 6c] | – | – | – | – | 5.80 | 4.73 | solubility kinetic at 2 h ([3]; pH 7): <5 µM
N-{5-[(1-tert-butyl-1H-tetrazol-5-yl)(3,4-dichlorophenyl)methylamino]pentan-2-yl}-6-methoxyquinolin-8-amine [Compound 6d] | – | – | – | – | 5.88 | 4.74 | solubility kinetic at 2 h ([3]; pH 7): <5 µM
1-[2-(7-Chloroquinolin-4-ylamino)ethyl]-4-(4-chlorophenyl)-3-methoxyazetidin-2-one [Compound 4e] | – | – | – | – | 6.52 | 5.15 | solubility kinetic at 2 h ([3]; pH 7): >200 µM
1-[2-(7-Chloroquinolin-4-ylamino)ethyl]-3-methoxy-4-p-tolylazetidin-2-one [Compound 4c] | – | – | – | – | 6.24 | 4.28 | –
COc1cc(NC(C)CCCN)c2ncccc2c1 (stereo not shown) [Primaquine, reference compound] | – | – | – | – | – | – | pIC50 (P. falciparum K1 strain; [8]): 6.19
COC1C(=O)N(CCCNc2ccnc3cc(Cl)ccc23)C1c1ccccc1 (stereo not shown) [Compound 4f, 1-[3-(7-Chloroquinolin-4-ylamino)propyl]-3-methoxy-4-phenylazetidin-2-one] | 25 | 6.24 | 14.4 | 4.79 | – | – | –
1-[2-(7-Chloroquinolin-4-ylamino)ethyl]-3-methoxy-4-(4-methoxyphenyl)azetidin-2-one [Compound 4b] | – | – | – | – | 6.21 | 4.28 | –
